Experiments:
Format in all cases: biochemical
CDK9/cyclin T1 = CDK9/cyclin T1 (Homo sapiens, UniProt P50750); experiment: Kinase assay CDK9/cyclin T1; conditions: Ki calculated (Cheng-Prusoff) from experimentally determined IC50 and Km,ATP; read-out: Kinase Inhibition Ki CDK9 - cyclin T1
Protocol: (§1) The compounds from the examples above were investigated for their ability to inhibit the enzymatic activity of various protein kinases. This was achieved by measurement of incorporation of radioactive phosphate from ATP into appropriate polypeptide substrates. Recombinant protein kinases and kinase complexes were produced or obtained commercially. Assays were performed using 96-well plates and appropriate assay buffers (typically 25 mM β-glycerophosphate, 20 mM MOPS, 5 mM EGTA, 1 mM DTT, 1 mM […], pH 7.4), into which were added 2-4 μg of active enzyme with appropriate substrates. The reactions were initiated by addition of Mg/ATP mix (15 mM MgCl2+100 μM ATP with 30-50 kBq per well of [γ-^32P]-ATP) and mixtures incubated as required at 30° C. Reactions were stopped on ice, followed by filtration through p81 filterplates or GF/C filterplates (Whatman Polyfiltronics, Kent, UK). After washing 3 times with 75 mM aq orthophosphoric acid, plates were dried, scintillant added and incorporated radioactivity measured in a scintillation counter (TopCount, Packard Instruments, Pangbourne, Berks, UK). Compounds for kinase assay were made up as 10 mM stocks in DMSO and diluted into 10% DMSO in assay buffer.

CDK4/cyclin D1 = CDK4/cyclin D1 (Homo sapiens, UniProt P11802); experiment: Kinase assay CDK4/cyclin D1; conditions: Ki calculated (Cheng-Prusoff) from experimentally determined IC50 and Km,ATP; read-out: Kinase Inhibition Ki CDK4 - cyclin D1
CDK4/cyclin D1, sequence (P11802 whole entry, species assumed): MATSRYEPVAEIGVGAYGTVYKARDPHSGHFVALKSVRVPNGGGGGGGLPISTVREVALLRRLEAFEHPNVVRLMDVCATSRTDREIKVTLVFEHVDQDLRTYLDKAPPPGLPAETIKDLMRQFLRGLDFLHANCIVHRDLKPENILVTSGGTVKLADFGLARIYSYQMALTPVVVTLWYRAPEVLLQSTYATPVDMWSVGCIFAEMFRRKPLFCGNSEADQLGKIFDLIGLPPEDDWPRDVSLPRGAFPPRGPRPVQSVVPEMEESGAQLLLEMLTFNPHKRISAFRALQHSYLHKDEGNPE
CDK4/cyclin D1, sequence (P24385 whole entry partner, species assumed): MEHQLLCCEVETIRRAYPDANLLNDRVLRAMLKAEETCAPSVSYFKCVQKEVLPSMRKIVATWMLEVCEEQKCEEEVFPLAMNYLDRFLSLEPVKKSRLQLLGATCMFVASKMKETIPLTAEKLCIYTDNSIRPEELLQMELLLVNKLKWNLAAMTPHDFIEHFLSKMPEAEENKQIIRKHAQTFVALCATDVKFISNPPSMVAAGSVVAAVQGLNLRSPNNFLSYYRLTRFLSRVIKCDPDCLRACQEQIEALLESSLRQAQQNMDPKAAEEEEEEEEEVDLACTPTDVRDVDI
Protocol: as §1

CDK1/cyclin B = CDK1/cyclin B (Homo sapiens, UniProt P06493); experiment: Kinase assay CDK1/cyclin B (radioactive phosphate incorporation); conditions: Ki calculated (Cheng-Prusoff) from experimentally determined IC50 and Km,ATP; read-out: Kinase Inhibition Ki CDK1 - cyclin B
CDK1/cyclin B, sequence (P06493 whole entry, species assumed): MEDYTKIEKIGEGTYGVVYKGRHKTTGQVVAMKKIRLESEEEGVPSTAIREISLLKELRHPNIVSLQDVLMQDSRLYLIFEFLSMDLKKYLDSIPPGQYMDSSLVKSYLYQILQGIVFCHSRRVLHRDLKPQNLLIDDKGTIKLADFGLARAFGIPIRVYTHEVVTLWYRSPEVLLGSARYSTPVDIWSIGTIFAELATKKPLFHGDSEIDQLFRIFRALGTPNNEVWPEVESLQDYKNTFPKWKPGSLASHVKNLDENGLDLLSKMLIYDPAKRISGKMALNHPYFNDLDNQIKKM
CDK1/cyclin B, sequence (P14635 whole entry partner, species assumed): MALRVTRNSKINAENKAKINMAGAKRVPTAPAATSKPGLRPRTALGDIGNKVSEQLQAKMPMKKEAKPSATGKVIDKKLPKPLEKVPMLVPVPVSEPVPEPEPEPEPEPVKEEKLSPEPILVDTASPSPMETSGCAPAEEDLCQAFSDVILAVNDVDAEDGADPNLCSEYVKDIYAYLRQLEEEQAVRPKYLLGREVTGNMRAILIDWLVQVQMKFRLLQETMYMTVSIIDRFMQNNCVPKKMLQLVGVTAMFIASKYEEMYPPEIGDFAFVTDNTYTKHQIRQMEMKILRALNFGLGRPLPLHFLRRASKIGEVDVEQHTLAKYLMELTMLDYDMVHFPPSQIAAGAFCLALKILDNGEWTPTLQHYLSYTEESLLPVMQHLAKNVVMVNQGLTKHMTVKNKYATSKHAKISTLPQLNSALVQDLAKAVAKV
Protocol: as §1, with “The reactions were initiated by addition of Mg/ATP mix (15 mM MgCl2+100 μM ATP with 30-50 kBq per well of [γ-^32P]-ATP) and mixtures incubated as required at 30° C.” left out

CDK2/cyclin E = CDK2/cyclin E (Homo sapiens, UniProt P24941); experiment: Kinase assay CDK2/cyclin E; conditions: Ki calculated (Cheng-Prusoff) from experimentally determined IC50 and Km,ATP; read-out: Kinase Inhibition Ki CDK2 - cyclin E
Protocol: as §1, with “The reactions were initiated by addition of Mg/ATP mix (15 mM MgCl2+100 μM ATP with 30-50 kBq per well of [γ-^32P]-ATP) and mixtures incubated as required at 30° C.” left out

CDK7/cyclin H = CDK7/cyclin H (Homo sapiens, UniProt P50613); experiment: Kinase assay CDK7/cyclin H; conditions: Ki calculated (Cheng-Prusoff) from experimentally determined IC50 and Km,ATP; read-out: Kinase Inhibition Ki CDK7 - cyclin H
CDK7/cyclin H, sequence (P50613 whole entry, species assumed): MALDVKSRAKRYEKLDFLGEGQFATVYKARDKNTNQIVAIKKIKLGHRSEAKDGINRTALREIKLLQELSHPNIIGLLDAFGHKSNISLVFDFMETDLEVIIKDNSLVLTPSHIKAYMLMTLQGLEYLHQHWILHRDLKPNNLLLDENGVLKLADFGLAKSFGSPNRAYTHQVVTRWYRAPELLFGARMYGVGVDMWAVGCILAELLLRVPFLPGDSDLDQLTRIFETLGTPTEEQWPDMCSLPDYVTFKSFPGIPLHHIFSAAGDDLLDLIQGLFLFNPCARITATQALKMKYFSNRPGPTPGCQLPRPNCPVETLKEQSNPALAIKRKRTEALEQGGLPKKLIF
CDK7/cyclin H, sequence (P51946 whole entry partner, species assumed): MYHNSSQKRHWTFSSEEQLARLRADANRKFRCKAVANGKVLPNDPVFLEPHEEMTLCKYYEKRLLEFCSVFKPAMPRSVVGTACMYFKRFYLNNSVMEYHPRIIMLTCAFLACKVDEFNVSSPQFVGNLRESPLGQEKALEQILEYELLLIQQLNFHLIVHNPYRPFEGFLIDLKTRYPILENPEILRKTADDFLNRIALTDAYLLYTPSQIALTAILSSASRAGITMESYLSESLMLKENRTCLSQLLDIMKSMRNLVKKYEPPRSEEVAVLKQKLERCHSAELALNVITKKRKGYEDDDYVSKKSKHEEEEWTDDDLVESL
Protocol: as §1

CDK2/cyclin A = CDK2/cyclin A (Homo sapiens, UniProt P24941); experiment: Kinase assay CDK2/cyclin A; conditions: Ki calculated (Cheng-Prusoff) from experimentally determined IC50 and Km,ATP; read-out: Kinase Inhibition Ki CDK2 - cyclin A
Protocol: as §1, with “The reactions were initiated by addition of Mg/ATP mix (15 mM MgCl2+100 μM ATP with 30-50 kBq per well of [γ-^32P]-ATP) and mixtures incubated as required at 30° C.” left out

CDK9/cyclin T1, sequence (P50750 whole entry, species assumed): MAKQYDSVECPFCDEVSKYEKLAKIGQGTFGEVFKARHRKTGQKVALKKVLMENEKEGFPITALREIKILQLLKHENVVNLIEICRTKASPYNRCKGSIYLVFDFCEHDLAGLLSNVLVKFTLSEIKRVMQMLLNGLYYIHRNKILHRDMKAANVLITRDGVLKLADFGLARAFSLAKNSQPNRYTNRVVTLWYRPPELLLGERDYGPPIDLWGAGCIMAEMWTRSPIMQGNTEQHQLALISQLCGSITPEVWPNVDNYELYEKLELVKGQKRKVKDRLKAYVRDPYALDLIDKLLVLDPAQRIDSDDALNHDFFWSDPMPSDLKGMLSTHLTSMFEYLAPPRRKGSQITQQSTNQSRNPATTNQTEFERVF
CDK9/cyclin T1, sequence (O60563 whole entry partner, species assumed): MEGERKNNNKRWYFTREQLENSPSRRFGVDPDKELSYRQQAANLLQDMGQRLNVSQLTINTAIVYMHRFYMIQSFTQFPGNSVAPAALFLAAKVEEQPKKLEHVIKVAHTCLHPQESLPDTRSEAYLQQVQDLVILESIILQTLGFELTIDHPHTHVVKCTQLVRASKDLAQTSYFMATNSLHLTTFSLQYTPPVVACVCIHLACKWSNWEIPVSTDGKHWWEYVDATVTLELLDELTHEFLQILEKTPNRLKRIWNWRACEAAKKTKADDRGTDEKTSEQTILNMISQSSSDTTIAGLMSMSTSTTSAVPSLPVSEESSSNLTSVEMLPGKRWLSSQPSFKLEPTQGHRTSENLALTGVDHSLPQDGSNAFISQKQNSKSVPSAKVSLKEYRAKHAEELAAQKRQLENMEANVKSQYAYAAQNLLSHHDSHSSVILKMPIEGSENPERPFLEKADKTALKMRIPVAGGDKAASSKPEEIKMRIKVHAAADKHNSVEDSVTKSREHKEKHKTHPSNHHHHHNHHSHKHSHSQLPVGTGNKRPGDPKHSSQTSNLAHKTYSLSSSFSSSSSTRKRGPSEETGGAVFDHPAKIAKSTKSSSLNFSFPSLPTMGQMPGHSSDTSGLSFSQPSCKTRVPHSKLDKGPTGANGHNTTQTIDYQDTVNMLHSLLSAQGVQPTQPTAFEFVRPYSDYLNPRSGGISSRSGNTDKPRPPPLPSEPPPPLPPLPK

Row | Ki (CDK9/cyclin T1) | Ki (CDK4/cyclin D1) | Ki (CDK1/cyclin B) | Ki (CDK2/cyclin E) | Ki (CDK7/cyclin H) | Ki (CDK2/cyclin A) | Compound
1 | 0.7 nM | – | – | – | – | – | Cc1c(-c2ccnc(Nc3ccc(O)cc3)n2)sc(=O)n1C [Compound 3, 5-[2-(4-Hydroxy-phenylamino)-pyrimidin-4-yl]-3,4-dimethyl-3H-thiazol-2-one]
2 | – | 1600 nM | 460 nM | 130 nM | 4100 nM | 200 nM | Cc1c(-c2ccnc(Nc3ccc(Cl)cc3)n2)sc(=O)n1C [Compound 4, 5-[2-(4-Chloro-phenylamino)-pyrimidin-4-yl]-3,4-dimethyl-3H-thiazol-2-one]
3 | – | 570 nM | 260 nM | 380 nM | 920 nM | 190 nM | COc1ccc(Nc2nccc(-c3sc(=O)n(C)c3C)n2)cc1 [Compound 6, 5-[2-(4-Methoxy-phenylamino)-pyrimidin-4-yl]-3,4-dimethyl-3H-thiazol-2-one]
4 | – | 540 nM | 130 nM | 43 nM | 620 nM | 25 nM | Cc1c(-c2ccnc(Nc3cccc(O)c3)n2)sc(=O)n1C [Compound 7, 5-[2-(3-Hydroxy-phenylamino)-pyrimidin-4-yl]-3,4-dimethyl-3H-thiazol-2-one]
5 | 41 nM | 530 nM | 750 nM | 750 nM | 860 nM | 200 nM | Cc1c(-c2ccnc(Nc3ccc(N(C)C)cc3)n2)sc(=O)n1C [Compound 8, 5-[2-(4-Dimethylamino-phenylamino)-pyrimidin-4-yl]-3,4-dimethyl-3H-thiazol-2-one]
6 | – | 670 nM | 5200 nM | 590 nM | 1300 nM | 170 nM | Cc1c(-c2ccnc(Nc3ccc(N4CCOCC4)cc3)n2)sc(=O)n1C [Compound 9, 3,4-Dimethyl-5-[2-(4-morpholin-4-yl-phenylamino)-pyrimidin-4-yl]-3H-thiazol-2-one]
7 | – | 990 nM | 280 nM | 130 nM | 520 nM | 21 nM | Cc1c(-c2ccnc(Nc3ccc(F)c([N+](=O)[O-])c3)n2)sc(=O)n1C [Compound 10, 5-[2-(4-Fluoro-3-nitro-phenylamino)-pyrimidin-4-yl]-3,4-dimethyl-3H-thiazol-2-one]
8 | 24 nM | – | 380 nM | 66 nM | – | – | Cc1cc(Nc2nccc(-c3sc(=O)n(C)c3C)n2)ccc1F [Compound 12, 5-[2-(4-Fluoro-3-methyl-phenylamino)-pyrimidin-4-yl]-3,4-dimethyl-3H-thiazol-2-one]
9 | 93 nM | 270 nM | 1500 nM | 530 nM | 170 nM | 230 nM | Cc1c(-c2ccnc(Nc3ccc(N4CCN(C)CC4)cc3)n2)sc(=O)n1C [Compound 13, 3,4-Dimethyl-5-{2-[4-(4-methyl-piperazin-1-yl)-phenylamino]-pyrimidin-4-yl}-3H-thiazol-2-one]
10 | 35 nM | 2100 nM | 700 nM | 350 nM | – | 840 nM | Cc1ccc(Nc2nccc(-c3sc(=O)n(C)c3C)n2)cc1I [Compound 14, 5-[2-(3-Iodo-4-methyl-phenylamino)-pyrimidin-4-yl]-3,4-dimethyl-3H-thiazol-2-one]
11 | 77 nM | 190 nM | 6900 nM | 260 nM | 510 nM | 180 nM | CC(=O)N1CCN(c2ccc(Nc3nccc(-c4sc(=O)n(C)c4C)n3)cc2)CC1 [Compound 17, 5-{2-[4-(4-Acetyl-piperazin-1-yl)-phenylamino]-pyrimidin-4-yl}-3,4-dimethyl-3H-thiazol-2-one]
12 | 1.2 nM | 170 nM | 22 nM | 28 nM | 28 nM | 59 nM | Cc1c(-c2ccnc(Nc3ccc(Cl)c(CO)c3)n2)sc(=O)n1C [Compound 18, 5-[2-(4-Chloro-3-hydroxymethyl-phenylamino)-pyrimidin-4-yl]-3,4-dimethyl-3H-thiazol-2-one]
13 | 1800 nM | – | – | 1700 nM | 5100 nM | – | Cc1c(-c2ccnc(Nc3cccc(C(F)(F)F)c3)n2)sc(=O)n1C [Compound 19, 3,4-Dimethyl-5-[2-(3-trifluoromethyl-phenylamino)-pyrimidin-4-yl]-3H-thiazol-2-one]
14 | 85 nM | – | – | 6500 nM | 910 nM | – | Cc1ccc([N+](=O)[O-])cc1Nc1nccc(-c2sc(=O)n(C)c2C)n1 [Compound 20, 3,4-Dimethyl-5-[2-(2-methyl-5-nitro-phenylamino)-pyrimidin-4-yl]-3H-thiazol-2-one]
15 | 370 nM | 24000 nM | 6300 nM | 1900 nM | – | 1100 nM | CCn1c(C)c(-c2ccnc(Nc3ccc(Cl)c(C(=O)O)c3)n2)sc1=O [Compound 24, 2-Chloro-5-[4-(3-ethyl-4-methyl-2-oxo-2,3-dihydro-thiazol-5-yl)-pyrimidin-2-ylamino]-benzoic acid]
16 | 4400 nM | – | – | 2700 nM | – | 23000 nM | CCn1c(C)c(-c2ccnc(Nc3ccc(Cl)c(C(=O)OC)c3)n2)sc1=O [Compound 25, 2-Chloro-5-[4-(3-ethyl-4-methyl-2-oxo-2,3-dihydro-thiazol-5-yl)-pyrimidin-2-ylamino]-benzoic acid methyl ester]
17 | 7 nM | 170 nM | – | 33 nM | 43 nM | – | CCn1c(C)c(-c2ccnc(Nc3ccc(N(C)C)c([N+](=O)[O-])c3)n2)sc1=O [Compound 29, 5-[2-(4-Dimethylamino-3-nitro-phenylamino)-pyrimidin-4-yl]-3-ethyl-4-methyl-3H-thiazol-2-one]
18 | – | – | – | – | 430 nM | – | Cc1c(-c2ccnc(Nc3ccc(Cl)cc3)n2)sc(=O)n1CCC(C)C [Compound 31, 5-[2-(4-Chloro-phenylamino)-pyrimidin-4-yl]-4-methyl-3-(3-methyl-butyl)-3H-thiazol-2-one]
19 | 6.5 nM | – | 500 nM | 68 nM | – | – | Cc1c(-c2ccnc(Nc3ccc(Cl)nc3)n2)sc(=O)n1C [Compound 32, 5-[2-(6-Chloro-pyridin-3-ylamino)-pyrimidin-4-yl]-3,4-dimethyl-3H-thiazol-2-one]
20 | 1800 nM | – | 3500 nM | 1100 nM | 230 nM | 600 nM | Cc1c(-c2ccnc(Nc3ccc(Cl)nc3)n2)sc(=O)n1CCC(C)C [Compound 34, 5-[2-(6-Chloro-pyridin-3-ylamino)-pyrimidin-4-yl]-4-methyl-3-(3-methyl-butyl)-3H-thiazol-2-one]
21 | – | – | 9900 nM | 8600 nM | – | – | Cc1c(-c2ccnc(Nc3cc([N+](=O)[O-])ccc3N(C)C)n2)sc(=O)n1C [Compound 37, 5-[2-(2-Dimethylamino-5-nitro-phenylamino)-pyrimidin-4-yl]-3,4-dimethyl-3H-thiazol-2-one]
22 | 80 nM | – | – | – | 140 nM | – | CCn1c(C)c(-c2ccnc(Nc3cccc(OC)c3)n2)sc1=O [Compound 50, 3-Ethyl-5-[2-(3-methoxy-phenylamino)-pyrimidin-4-yl]-4-methyl-3H-thiazol-2-one]
23 | 320 nM | 1300 nM | – | 1600 nM | – | – | Cc1c(-c2ccnc(NCc3cccnc3)n2)sc(=O)n1C [Compound 83, 3,4-Dimethyl-5-{2-[(pyridin-3-ylmethyl)-amino]-pyrimidin-4-yl}-3H-thiazol-2-one]
24 | 130 nM | – | – | – | – | – | Cc1c(-c2ccnc(N)n2)sc(=O)n1C [Compound 84, 5-(2-Amino-pyrimidin-4-yl)-3,4-dimethyl-3H-thiazol-2-one]
25 | 290 nM | – | – | – | – | – | CC(=O)Nc1nccc(-c2sc(=O)n(C)c2C)n1 [Compound 85, N-[4-(3,4-Dimethyl-2-oxo-2,3-dihydro-thiazol-5-yl)-pyrimidin-2-yl]-acetamide]

From patent publication US7902361B2, “Pyrimidin-4-yl-3, 4-thione compounds and their use in therapy” (Cyclacel Limited, priority 2003, dated 2011)
